According to US10933039B2, “Coolant mixtures” (Symrise AG, priority 2016, dated 2021):

Test: Sensory evaluation of coolant mixtures by a panel of 5 trained testers (cooling effect and flavor profile) in a standard chewy candy preparation
Assay type: in vivo
Details: panel score (5)=very true to (0)=largely not true; mean values of 5 trained testers; unsweetened, non-aromatized standard chewy candy preparation
Protocol: The cooling effect and flavor profile of various coolant mixtures were evaluated by a panel consisting of 5 trained testers. For this purpose, the mixtures were incorporated into an unsweetened and non-aromatized standard chewy candy preparation. The evaluation was reported according to the notation (5)=very true to (0)=largely not true. Data are mean values.

First: CC(C)CC=O [C2, Isovaleraldehyde]
Second: CC(C)C=O [C1, Isobutyraldehyde]
The “Cooling effect is strong” value of the first is lower: 3.1 for the first, 3.2 for the second.

First: CC(C)CC(=O)O [C4, Isovaleric acid]
Second: CC(C)C(=O)O [C3, Isobutyric acid]
The “Cooling effect is strong” value of the first is higher: 3.1 for the first, 3.0 for the second.

First: CC(C)CC=O [C2, Isovaleraldehyde]
Second: CC(C)C=O [C1, Isobutyraldehyde]
The “Cooling effect occurs rapidly” value of the first is lower: 2.0 for the first, 2.1 for the second.

Going from `CC(C)CC(=O)O` [C4, Isovaleric acid] to `CC(C)C(=O)O` [C3, Isobutyric acid], the “Cooling effect occurs rapidly” value falls from 2.5 to 2.2.
